The values that follow come from patent publication US10004751B2, “Compositions and methods for treating Dengue virus infection” (The J. David Gladstone Institutes, priority 2014, dated 2018).

Each structure is given as a SMILES string.

The experiment relates to DENV. Briefly: DENV replication in Huh7 cells treated with ARFGAP1 inhibitor. In kind it is cell-based, Dengue virus. To be noted: DENV MOI of 0.5, increasing concentrations, 24 hours post-infection. As to the method:
Human hepatoma Huh7 cells were infected with DENV (MOI of 0.5) and treated with increasing concentrations of QS 11. Viral RNA synthesis, DENV capsid protein levels, and infectious virion production were measured at 24 hours post-infection.

On to `OC[C@H](Cc1ccccc1)Nc1nc(Oc2ccc3c(c2)CCC3)nc2c1ncn2Cc1ccc(-c2ccccc2)cc1` [QS 11], for which the “Viral RNA synthesis” value (FIG. 6A) is listed as “reduced viral RNA synthesis”. For the setting “FIG. 6B”, the “DENV capsid protein levels” value was “reduced”. In addition, the Infectious virion production result (FIG. 6C) is listed as “reduced”.
